Experimental data from patent publication US10556943B2, “HLA-DR binding peptides and their uses” (priority 2007, dated 2020).
Ends that are not written are not given here.

Assays:
[1] = tested on: patient-derived PBMC; assay: 10-day interferon-gamma ELIspot on PBMC of patients and healthy donors; format: cell-based, human; settings: for % = Percent of patients with responses: ELIspot, patients with either breast or ovarian cancer; for fraction of patients that had mean T cell values above the cutoff: cutoff = mean and two standard deviations of normal healthy individuals
Description: Enzyme-linked immunosorbent spot assay.
An interferon-gamma ELIspot assay was used to assess immunity to the indiscriminate binding peptides in 48 patients with either breast or ovarian cancer and 18 healthy controls.
Using an ELIspot assay with a limit of detection of approximately 1:100,000 antigen-specific T cells per million PBMC, patient-derived PBMC were screened for reactivity against all of the HLA-DR binding peptides.

[2] = tested on: short term T cell lines; assay: IFN-γ ELISpot analysis of short term T cell lines (natural processing); format: cell-based, human; settings: T cell lines respond to peptide and protein fragment; FIGS. 5, 6
[3] = target: T1, purified HLA DRB1*0404 (Homo sapiens, UniProt P01903+P01911, A100R/A169T/F76Y/I96L/K127E/L162R/M171V/N62H/P40V/Q125Y/R42H/S133A/S149N/S66Y/V209L/W38E); assay: HLA-DR radioligand binding inhibition assay, DRB1*0404
T1 construct: MHC molecules utilized were purified from EBV transformed homozygous cell lines or single MHC allele transfected 721.221, C1R, or fibroblast lines; made in house; host or cells: EBV transformed homozygous cell lines or single MHC allele transfected 721.221, C1R, or fibroblast lines
Procedure: Fifteen distinct HLA-DR molecules were used in quantitative assays to measure the binding of peptides to solubilized HLA-DR molecules. […] Briefly, columns of inactivated Sepharose CL4B and Protein A Sepharose were used as pre-columns. HLA-DR molecules were captured by passage of lysates over LB3.1 monoclonal antibody (anti-HLA-DRA) columns. Antibody columns were washed with 10 mM Tris-HCL, pH8.0 with 1% (v/v) NP-40, followed by PBS containing 0.4% (w/v) n-octylglucoside. […] The pH was reduced to 8.0 and the eluates were concentrated by centrifugation in Centriprep 30 concentrators at 2000 rpm (Amicon, Beverly, Mass.).
Briefly, 1-10 nM of radiolabeled peptide was co-incubated for 2 days at either room temperature or 37° C. with 1 μM to 1 nM purified HLA-DR molecules in the presence of a cocktail of protease inhibitors. Assays were performed at various pH conditions, ranging from pH 4 to pH 7. […] After incubation, the percentage of HLA-DR-bound radioactivity is determined by capturing HLA-DR/peptide complexes on Optiplates (Packard Instruments, Meriden, Conn.) coated with the LB3.1 antibody and determining bound counts per minute using the TopCount microscintillation counter (Packard Instruments). […] Competitor peptides are tested in 2-4 complete, independent experiments, at concentrations ranging from 30 μg/mL to 300 pg/mL.

[4] = target: T2, purified HLA DRB1*0701 (Homo sapiens, UniProt P01903+P01911, A100R/A102G/A103Q/D57E/D86V/E43K/F76Y/K127E/L162R/M171V/P40G/Q125H/Q99D/R33Q/R42Y/R54Q/S133A/S66F/T210M/V115G/Y107V/Y59L/Y89S); assay: HLA-DR radioligand binding inhibition assay, DRB1*0701
T2 construct: MHC molecules utilized were purified from EBV transformed homozygous cell lines or single MHC allele transfected 721.221, C1R, or fibroblast lines; made in house; host or cells: EBV transformed homozygous cell lines or single MHC allele transfected 721.221, C1R, or fibroblast lines
Procedure: Fifteen distinct HLA-DR molecules were used in quantitative assays to measure the binding of peptides to solubilized HLA-DR molecules. […] Briefly, columns of inactivated Sepharose CL4B and Protein A Sepharose were used as pre-columns. HLA-DR molecules were captured by passage of lysates over LB3.1 monoclonal antibody (anti-HLA-DRA) columns. Antibody columns were washed with 10 mM Tris-HCL, pH8.0 with 1% (v/v) NP-40, followed by PBS containing 0.4% (w/v) n-octylglucoside.
Briefly, 1-10 nM of radiolabeled peptide was co-incubated for 2 days at either room temperature or 37° C. with 1 μM to 1 nM purified HLA-DR molecules in the presence of a cocktail of protease inhibitors. Assays were performed at various pH conditions, ranging from pH 4 to pH 7. […] After incubation, the percentage of HLA-DR-bound radioactivity is determined by capturing HLA-DR/peptide complexes on Optiplates (Packard Instruments, Meriden, Conn.) coated with the LB3.1 antibody and determining bound counts per minute using the TopCount microscintillation counter (Packard Instruments).

Compound | % = Percent of patients with responses [1] | naturally processed and presented antigen [2] | other results
CC(C)C[C@H](NC(=O)[C@H](CO)NC(=O)[C@H](C)NC(=O)[C@H](CC(N)=O)NC(=O)[C@@H](NC(=O)[C@@H]1CCCN1C(=O)[C@H](CC(C)C)NC(=O)[C@H](Cc1ccc(O)cc1)NC(=O)[C@@H](NC(=O)[C@H](CC(C)C)NC(=O)[C@H](CCC(=O)O)NC(=O)[C@H](CC(C)C)NC(=O)[C@@H](N)CC(N)=O)[C@@H](C)O)[C@@H](C)O)C(=O)N[C@@H](CO)C(=O)N[C@@H](Cc1ccccc1)C(=O)O [Peptide 9019.0030] | 15% | naturally processed and presented antigens | 
CC[C@H](C)[C@H](NC(=O)[C@@H]1CCCN1)C(=O)N[C@@H](CCCCN)C(=O)N[C@@H](Cc1c[nH]c2ccccc12)C(=O)N[C@@H](CCSC)C(=O)N[C@@H](C)C(=O)N[C@@H](CC(C)C)C(=O)N[C@@H](CCC(=O)O)C(=O)N[C@@H](CO)C(=O)N[C@H](C(=O)N[C@@H](CC(C)C)C(=O)N[C@@H](CCCNC(=N)N)C(=O)N[C@@H](CCCNC(=N)N)C(=O)N[C@@H](CCCNC(=N)N)C(=O)N[C@@H](Cc1ccccc1)C(=O)O)[C@@H](C)CC [Peptide 9019.0087] | 25% | naturally processed and presented antigens | fraction of patients that had mean T cell values above the cutoff ([1]; FIG. 1): 25%
CC(C)C[C@H](NC(=O)[C@@H]1CCCN1C(=O)[C@@H](NC(=O)[C@@H](NC(=O)[C@@H]1CCCN1C(=O)[C@H](CC(=O)O)NC(=O)[C@H](CCC(=O)O)NC(=O)[C@H](CO)NC(=O)[C@H](Cc1ccc(O)cc1)NC(=O)[C@H](CCCNC(=N)N)NC(=O)[C@H](CCC(N)=O)NC(=O)[C@@H](N)CC(C)C)[C@@H](C)O)C(C)C)C(=O)N1CCC[C@H]1C(=O)N[C@@H](CO)C(=O)N[C@@H](CCC(=O)O)C(=O)O [Peptide 9019.0099] |  |  | IC50 [3]: 13.1 µM
CC[C@H](C)[C@H](NC(=O)[C@H](Cc1c[nH]cn1)NC(=O)[C@H](CC(C)C)NC(=O)[C@H](CO)NC(=O)[C@H](Cc1ccc(O)cc1)NC(=O)[C@H](CC(C)C)NC(=O)[C@H](Cc1c[nH]cn1)NC(=O)[C@H](CCC(=O)O)NC(=O)[C@H](CC(C)C)NC(=O)[C@@H]1CCCN1C(=O)CNC(=O)[C@H](CCCNC(=N)N)NC(=O)[C@@H](N)CCC(=O)O)C(=O)N1CCC[C@H]1C(=O)N[C@@H](CC(N)=O)C(=O)O [Peptide 9019.0190] | 23% | naturally processed peptides | 
CC[C@H](C)[C@H](NC(=O)[C@H](CCCNC(=N)N)NC(=O)[C@H](CC(C)C)NC(=O)[C@H](CCCNC(=N)N)NC(=O)[C@H](CCC(N)=O)NC(=O)[C@H](CC(C)C)NC(=O)[C@@H]1CCCN1C(=O)[C@@H](NC(=O)[C@H](CCC(N)=O)NC(=O)[C@H](CCCNC(=N)N)NC(=O)[C@@H](NC(=O)[C@H](CCC(N)=O)NC(=O)[C@H](CC(N)=O)NC(=O)[C@@H](N)Cc1c[nH]cn1)C(C)C)C(C)C)C(=O)N[C@H](C(=O)O)C(C)C [Peptide 9019.0034] |  | naturally processed and presented antigens | 
GDPLNNTTPVTGASP [Peptide 9019.0036] |  |  | IC50 [4]: 13.2 µM
CC(C)C[C@H](NC(=O)[C@H](CC(N)=O)NC(=O)[C@H](CO)NC(=O)[C@@H](NC(=O)[C@H](Cc1ccccc1)NC(=O)[C@H](CS)NC(=O)[C@H](C)NC(=O)[C@@H](N)Cc1ccc(O)cc1)C(C)C)C(=O)N[C@@H](C)C(=O)N[C@H](C(=O)NCC(=O)N[C@@H](CCCNC(=N)N)C(=O)N[C@@H](CC(N)=O)C(=O)N[C@@H](CC(N)=O)C(=O)N[C@@H](CO)C(=O)O)[C@@H](C)O [Peptide 9019.0141] | 25% |  | 
CC(C)C[C@H](NC(=O)[C@H](CC(C)C)NC(=O)[C@H](CC(C)C)NC(=O)[C@H](CC(C)C)NC(=O)[C@H](CC(C)C)NC(=O)[C@H](CC(C)C)NC(=O)[C@@H]1CCCN1C(=O)[C@H](CC(C)C)NC(=O)[C@H](CC(C)C)NC(=O)[C@@H]1CCCN1C(=O)[C@H](CC(C)C)NC(=O)[C@@H](N)CC(C)C)C(=O)NCC(=O)N[C@@H](C)C(=O)N[C@@H](CO)C(=O)O [Peptide 9019.0176] |  | naturally processed peptides | 
CC[C@H](C)[C@H](NC(=O)[C@H](C)NC(=O)[C@@H](NC(=O)[C@@H]1CCCN1C(=O)[C@@H](NC(=O)[C@@H](N)CCCCN)[C@@H](C)CC)C(C)C)C(=O)N[C@@H](CCCCN)C(=O)N[C@H](C(=O)N[C@@H](CC(C)C)C(=O)N[C@@H](CCCNC(=N)N)C(=O)N[C@@H](CCC(=O)O)C(=O)N[C@@H](CC(N)=O)C(=O)N[C@H](C(=O)N[C@@H](CO)C(=O)N1CCC[C@H]1C(=O)O)[C@@H](C)O)C(C)C [Peptide 1622.03] |  |  | IC50 [4]: > 20 µM
CC[C@H](C)[C@H](NC(=O)[C@H](CC(C)C)NC(=O)[C@H](CCCCN)NC(=O)CNC(=O)[C@@H](N)[C@@H](C)O)C(=O)N[C@@H](CCC(N)=O)C(=O)NCC(=O)N[C@@H](C)C(=O)N1CCC[C@H]1C(=O)N[C@H](C(=O)N[C@H](C(=O)N[C@@H](CCCNC(=N)N)C(=O)NCC(=O)N[C@@H](CC(=O)O)C(=O)N1CCC[C@H]1C(=O)O)[C@@H](C)CC)[C@@H](C)O [Peptide 9019.0192] |  | naturally processed peptides | 
CC(C)C[C@H](NC(=O)[C@H](CC(C)C)NC(=O)[C@H](CC(C)C)NC(=O)[C@H](CC(C)C)NC(=O)[C@H](CC(C)C)NC(=O)[C@H](CC(C)C)NC(=O)[C@@H]1CCCN1)C(=O)NCC(=O)N[C@@H](C)C(=O)N[C@@H](CO)C(=O)NCC(=O)NCC(=O)NCC(=O)NCC(=O)NCC(=O)O [Peptide 9019.0177] |  | naturally processed peptides | 
CC[C@H](C)[C@H](NC(=O)[C@H](CC(=O)O)NC(=O)[C@H](CCCCN)NC(=O)[C@H](Cc1c[nH]c2ccccc12)NC(=O)[C@H](CC(C)C)NC(=O)[C@@H](NC(=O)[C@@H](NC(=O)[C@H](CC(=O)O)NC(=O)[C@H](CCC(N)=O)NC(=O)[C@H](Cc1ccc(O)cc1)NC(=O)[C@H](CS)NC(=O)[C@H](CC(C)C)NC(=O)[C@H](CCC(N)=O)NC(=O)[C@@H]1CCCN1C(=O)[C@@H](N)CC(N)=O)[C@@H](C)O)[C@@H](C)CC)C(=O)O [Peptide 9019.0041] |  |  | IC50 [4]: > 20 µM
CC[C@H](C)[C@H](NC(=O)[C@@H](NC(=O)[C@H](CC(C)C)NC(=O)[C@H](CCCCN)NC(=O)[C@H](C)NC(=O)[C@@H](NC(=O)[C@@H](NC(=O)[C@@H]1CCCN1C(=O)[C@@H]1CCCN1C(=O)[C@H](CC(N)=O)NC(=O)[C@H](Cc1c[nH]c2ccccc12)NC(=O)[C@H](Cc1ccccc1)NC(=O)[C@@H](NC(=O)[C@H](CC(C)C)NC(=O)[C@@H](N)CC(C)C)[C@@H](C)O)[C@@H](C)O)[C@@H](C)O)[C@@H](C)O)C(=O)O [Peptide 9019.0105] | 17% |  | 
CC[C@H](C)[C@H](N)C(=O)N[C@@H](CCCCN)C(=O)N[C@@H](Cc1c[nH]c2ccccc12)C(=O)N[C@@H](CCSC)C(=O)N[C@@H](C)C(=O)N[C@@H](CC(C)C)C(=O)N[C@@H](CCC(=O)O)C(=O)N[C@@H](CO)C(=O)N[C@H](C(=O)N[C@@H](CC(C)C)C(=O)N[C@@H](CCCNC(=N)N)C(=O)N[C@@H](CCCNC(=N)N)C(=O)N[C@@H](CCCNC(=N)N)C(=O)N[C@@H](Cc1ccccc1)C(=O)N[C@H](C(=O)O)[C@@H](C)O)[C@@H](C)CC [Peptide 9019.0003] |  |  | fraction of patients that had mean T cell values above the cutoff ([1]; FIG. 1): 4%; patient response rate on exclusion of one healthy individual's data point ([1]; FIG. 1, robust healthy responder excluded from cutoff): 15%
